This test has as its target human recombinant H-PGDS (Homo sapiens, UniProt O60760). In words: Fluorescence intensity h-PGDS TBA enzyme assay. In kind it is biochemical. As to conditions: Examples up to 622 (and 3a, 3b).

human recombinant H-PGDS, sequence (O60760 whole entry): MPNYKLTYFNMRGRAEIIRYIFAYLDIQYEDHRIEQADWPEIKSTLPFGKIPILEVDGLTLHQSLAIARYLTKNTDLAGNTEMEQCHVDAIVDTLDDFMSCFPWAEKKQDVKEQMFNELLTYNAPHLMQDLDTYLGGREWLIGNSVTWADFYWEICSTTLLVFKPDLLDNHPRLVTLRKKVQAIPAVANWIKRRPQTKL

On to `Cc1nn(C(C)C)c(C)c1CN1CCC(NC(=O)c2ccc(-c3cccc(F)c3)nc2)CC1` [Example 361, 6-(3-Fluorophenyl)-N-{1-[(1-isopropyl-3,5-dimethyl-1H-pyrazol-4-yl)methyl]piperidin-4-yl}nicotinamide], for which the half-maximal inhibitory concentration (IC50) is 1.35 nM.
Regarding `Cc1nn(-c2ccc(F)cc2)c(C)c1CN1CCC(NC(=O)c2ccc(-c3cccc(F)c3)nc2)CC1` [Example 362, 6-(3-Fluorophenyl)-N-(1-{[1-(4-fluorophenyl)-3,5-dimethyl-1H-pyrazol-4-yl]methyl}piperidin-4-yl)nicotinamide], the IC50 stood at 1.05 nM.
Next, `O=C(NC1CCN(Cc2ccon2)CC1)c1ccc(-c2cccc(F)c2)nc1` [Example 363, 6-(3-Fluorophenyl)-N-[1-(isoxazol-3-ylmethyl)piperidin-4-yl]nicotinamide]: 0.299 nM; `COc1ccc(CN2CCC(NC(=O)c3ccc(-c4cccc(F)c4)nc3)CC2)cc1CN(C)C` [Example 364, N-(1-{3-[(Dimethylamino)methyl]-4-methoxybenzyl}piperidin-4-yl)-6-(3-fluorophenyl)nicotinamide]: 4.03 nM; `COc1ccc(-n2ccnc2CN2CCC(NC(=O)c3ccc(-c4cccc(F)c4)nc3)CC2)cc1` [Example 365, 6-(3-Fluorophenyl)-N-(1-{[1-(4-methoxyphenyl)-1H-imidazol-2-yl]methyl}piperidin-4-yl)nicotinamide]: 0.13 nM.
With `CC(C)c1cc(CN2CCC(NC(=O)c3ccc(-c4cccc(F)c4)nc3)CC2)n[nH]1` [Example 366], the IC50 is 2.42 nM.
In the case of `O=C(NC1CCN(Cc2cccc(-n3cccn3)c2)CC1)c1ccc(-c2cccc(F)c2)nc1` [Example 367, 6-(3-Fluorophenyl)-N-{1-[3-(1H-pyrazol-1-yl)benzyl]piperidin-4-yl}nicotinamide], the IC50 worked out at 0.707 nM.
With `Nc1ncc(CN2CCC(NC(=O)c3ccc(-c4cccc(F)c4)nc3)CC2)cn1` [Example 368, N-{1-[(2-Aminopyrimidin-5-yl)methyl]piperidin-4-yl}-6-(3-fluorophenyl)nicotinamide], the IC50 is 2.03 nM.
Regarding `Cc1cc(C)n(-c2cccc(CN3CCC(NC(=O)c4ccc(-c5cccc(F)c5)nc4)CC3)c2)n1` [Example 369, N-{1-[3-(3,5-Dimethyl-1H-pyrazol-1-yl)benzyl]piperidin-4-yl}-6-(3-fluorophenyl)nicotinamide], the IC50 was 1.36 nM.
Take `O=C(NC1CCN(Cc2cc(F)cc3c2OCOC3)CC1)c1ccc(-c2cccc(F)c2)nc1` [Example 370, N-{1-[(6-Fluoro-4H-1,3-benzodioxin-8-yl)methyl]piperidin-4-yl}-6-(3-fluorophenyl)nicotinamide]: the IC50 stood at 0.456 nM.
`O=C(NC1CCN(Cc2cccc3nsnc23)CC1)c1ccc(-c2cccc(F)c2)nc1` [Example 371, N-[1-(2,1,3-Benzothiadiazol-4-ylmethyl)piperidin-4-yl]-6-(3-fluorophenyl)nicotinamide]: the IC50 came to 0.438 nM.
Take `Cc1cc(CN2CCC(NC(=O)c3ccc(-c4cccc(F)c4)nc3)CC2)n(C)n1` [Example 372, N-{1-[(1,3-Dimethyl-1H-pyrazol-5-yl)methyl]piperidin-4-yl}-6-(3-fluorophenyl)nicotinamide]: the IC50 came out at 0.981 nM.
As for `O=C(NC1CCN(Cc2csc(-c3ccccc3)n2)CC1)c1ccc(-c2cccc(F)c2)nc1` [Example 373, 6-(3-Fluorophenyl)-N-{1-[(2-phenyl-1,3-thiazol-4-yl)methyl]piperidin-4-yl}nicotinamide], the IC50 turned out to be 2.36 nM.
As for `Cn1cnc(CN2CCC(NC(=O)c3ccc(-c4cccc(F)c4)nc3)CC2)c1` [Example 374, 6-(3-Fluorophenyl)-N-{1-[(1-methyl-1H-imidazol-4-yl)methyl]piperidin-4-yl}nicotinamide], the IC50 was 2.99 nM.
Turning to `O=C(NC1CCN(Cc2cccc(-n3cccn3)n2)CC1)c1ccc(-c2cccc(F)c2)nc1` [Example 375, 6-(3-Fluorophenyl)-N-(1-{[6-(1H-pyrazol-1-yl)pyridin-2-yl]methyl}piperidin-4-yl)nicotinamide], the IC50 came out at 0.667 nM.
As for `Cn1ccnc1-c1ccc(CN2CCC(NC(=O)c3ccc(-c4cccc(F)c4)nc3)CC2)cc1` [Example 376, 6-(3-Fluorophenyl)-N-{1-[4-(1-methyl-1H-imidazol-2-yl)benzyl]piperidin-4-yl}nicotinamide], the IC50 is 0.876 nM.
Next, `O=C(NC1CCN(Cc2cccn3c(Br)cnc23)CC1)c1ccc(-c2cccc(F)c2)nc1` [Example 377, N-{1-[(3-Bromoimidazo[1,2-a]pyridin-8-yl)methyl]piperidin-4-yl}-6-(3-fluorophenyl)nicotinamide]: 0.491 nM; `O=C(NC1CCN(Cc2ccc(=O)[nH]c2)CC1)c1ccc(-c2cccc(F)c2)nc1` [Example 378, 6-(3-Fluorophenyl)-N-{1-[(6-oxo-16-dihydropyridin-3-yl)methyl]piperidin-4-yl}nicotinamide]: 1.41 nM; `CCOC(=O)c1cn2c(CN3CCC(NC(=O)c4ccc(-c5cccc(F)c5)nc4)CC3)cccc2n1` [Example 379, Ethyl 5-{[4-({[6-(3-fluorophenyl)pyridin-3-yl]carbonyl}amino)piperidin-1-yl]methyl}imidazo[1,2-a]pyridine-2-carboxylate]: 1.43 nM.
Next, `Cc1ccc(-c2cccc(CN3CCC(NC(=O)c4ccc(-c5cccc(F)c5)nc4)CC3)c2)c(N)n1` [Example 380, N-{1-[3-(2-Amino-6-methylpyridin-3-yl)benzyl]piperidin-4-yl}-6-(3-fluorophenyl)nicotinamide]: 1.25 nM.
With `O=C(NC1CCN(Cc2cccc(-c3cncnc3)c2)CC1)c1ccc(-c2cccc(F)c2)nc1` [Example 381, 6-(3-Fluorophenyl)-N-[1-(3-pyrimidin-5-ylbenzyl)piperidin-4-yl]nicotinamide], the IC50 came to 0.0854 nM.
As for `O=C(NC1CCN(Cc2cn[nH]c2-c2ccccc2Cl)CC1)c1ccc(-c2cccc(F)c2)nc1` [Example 382, N-(1-{[5-(2-Chlorophenyl)-1H-pyrazol-4-yl]methyl}piperidin-4-yl)-6-(3-fluorophenyl)nicotinamide], the IC50 was 0.681 nM.
Next, `Cc1ccn2c(CN3CCC(NC(=O)c4ccc(-c5cccc(F)c5)nc4)CC3)c(C)nc2c1` [Example 383, N-{1-[(2,7-Dimethylimidazo[1,2,a]pyridin-3-yl)methyl]piperidin-4-yl}-6-(3-fluorophenyl)nicotinamide]: 1.25 nM.
As to `O=C(NC1CCN(Cc2ccn[nH]2)CC1)c1ccc(-c2cccc(F)c2)nc1` [Example 384, 6-(3-Fluorophenyl)-N-[1-(1H-pyrazol-5-ylmethyl)piperidin-4-yl]nicotinamide], the IC50 is 0.959 nM.
For the molecule `N#CC1(c2ccc(CN3CCC(NC(=O)c4ccc(-c5cccc(F)c5)nc4)CC3)cc2)CC=CC1` [Example 385, N-{1-[4-(1-Cyanocyclopent-3-en-1-yl)benzyl]piperidin-4-yl}-6-(3-fluorophenyl)nicotinamide], the IC50 was 11.7 nM.
Consider `O=C(NC1CCN(Cc2cnn3c2CCCC3)CC1)c1ccc(-c2cccc(F)c2)nc1` [Example 386, 6-(3-Fluorophenyl)-N-[1-(4,5,6,7-tetrahydropyrazolo[1,5-a]pyridin-3-ylmethyl)piperidin-4-yl]nicotinamide], for which the IC50 is 1.2 nM.
On to `O=C(NC1CCN(Cc2cnn3c2CCCCC3)CC1)c1ccc(-c2cccc(F)c2)nc1` [Example 387, 6-(3-Fluorophenyl)-N-[1-(5,6,7,8-tetrahydro-4H-pyrazolo[1,5-a]azepin-3-ylmethyl)piperidin-4-yl]nicotinamide], for which the IC50 amounted to 1.85 nM.
Consider `CCc1noc(COc2cccc(CN3CCC(NC(=O)c4ccc(-c5cccc(F)c5)nc4)CC3)c2)n1` [Example 388, N-(1-{3-[(3-Ethyl-1,2,4-oxadiazol-5-yl)methoxy]benzyl}piperidin-4-yl)-6-(3-fluorophenyl)nicotinamide], for which the IC50 worked out at 0.951 nM.
On to `Cc1nccc(CN2CCC(NC(=O)c3ccc(-c4cccc(F)c4)nc3)CC2)n1` [Example 389, 6-(3-Fluorophenyl)-N-{1-[(2-methylpyrmidin-4-yl)methyl]piperidin-4-yl}nicotinamide], for which the IC50 turned out to be 2.23 nM.
Take `CN(c1nccc(CN2CCC(NC(=O)c3ccc(-c4cccc(F)c4)nc3)CC2)n1)C1CCCCC1` [Example 390, N-[1-({2-[Cyclohexyl(methyl)amino]pyrimidin-4-yl}methyl)piperidin-4-yl]-6-(3-fluorophenyl)nicotinamide]: the IC50 came to 11.6 nM.
For `COCCCNc1nccc(CN2CCC(NC(=O)c3ccc(-c4cccc(F)c4)nc3)CC2)n1` [Example 391, 6-(3-Fluorophenyl)-N-[1-({2-[(3-methoxypropyl)amino]pyrimidin-4-yl}methyl)piperidin-4-yl]nicotinamide], the IC50 is 1.2 nM.
`CN(C)c1nccc(CN2CCC(NC(=O)c3ccc(-c4cccc(F)c4)nc3)CC2)n1` [Example 392, N-(1-{[2-(Dimethylamino)pyrimidin-4-yl]methyl}piperidin-4-yl)-6-(3-fluorophenyl)nicotinamide]: the IC50 worked out at 0.849 nM.
As to `O=C(NC1CCN(Cc2ccnc(NC3CC3)n2)CC1)c1ccc(-c2cccc(F)c2)nc1` [Example 393, N-(1-{[2-(Cyclopropylamino)pyrimidin-4-yl]methyl}piperidin-4-yl)-6-(3-fluorophenyl)nicotinamide], the half-inhibitory concentration (IC50) was 1.18 nM.
As to `O=C(NC1CCN(Cc2ccn(CCc3ccccc3)n2)CC1)c1ccc(-c2cccc(F)c2)nc1` [Example 394, 6-(3-Fluorophenyl)-N-(1-{[1-(2-phenylethyl)-1H-pyrazol-3-yl]methyl}piperidin-4-yl)nicotinamide], the IC50 amounted to 0.379 nM.
Take `O=C(NC1CCN(Cc2ccnn2CCc2ccccc2)CC1)c1ccc(-c2cccc(F)c2)nc1` [Example 395, 6-(3-Fluorophenyl)-N-(1-{[1-(2-phenylethyl)-1H-pyrazol-5-yl]methyl}piperidin-4-yl)nicotinamide]: the IC50 worked out at 1.43 nM.
Next, `Cn1ccc(CN2CCC(NC(=O)c3ccc(-c4cccc(F)c4)nc3)CC2)n1` [Example 396, 6-(3-Fluorophenyl)-N-{1-[(1-methyl-1H-pyrazol-3-yl)methyl]piperidin-4-yl}nicotinamide]: 1.45 nM.

Broadly, the IC50 is the point on the concentration scale where inhibition reaches its midpoint.

For the origin of these results see US7902373B2 (Pfizer Inc, priority 2006, dated 2011).
